The results in this text go back to patent publication US5994303A, “Use of insulin and IGF-I” (Chiron Corporation, priority 1994, dated 1999).

Entries after “also recorded” stand apart in the source; their conditions may differ.

Assay [1] concerns Male Sprague-Dawley rats. Description: Example 1: dexamethasone-treated rats infused with saline, rhGH or rhIGF-I; body weight gain and nitrogen retention. The settings on record: for Retention of nitrogen (nitrogen balance): 8 days infusion with Dex, rhIGF-I 500 per day vs saline or rhGH. The class given is in vivo, rat. As to the method:
On day zero the rats were anaesthetized intraperitoneally with 0.4 ml per 100 g body weight of a mixture of Rompun (20 mg·ml^-1), Ketalar (50 mg·ml^-1) and Saline (0.9%) in 1:2:3 volume proportions. The hair on the back of the rats was shaved off and the exposed skin carefully washed with 0.05% chlorhexidine (Pharmacia, Stockholm, Sweden) and 0.4% jodopax (Molnlycke, Goteborg, Sweden), both being diluted in 70% alcohol. Two mutually parallel incisions, each of 15 mm in length, were then made along the dorsal midline. The incisions penetrated the epidermis, dermis and subcutaneous muscle but left the deep fascia intact. Two subcutaneous pockets were made on both sides of the incisions by separating the subcutaneous muscle from the deep fascia. One (Exp. I) or two (Exp. 2) mini-pumps were implanted in each pocket. The wounds were closed with sutures 4-0 Johnson & Johnson). Osmotic mini-pumps (Alzet 2001, Alza Corporation, Palo Alto, USA) releasing 1 μl·h^-1 for 8 days were used for continuous delivery of hormones and Dex to the animals. The pumps were filled to a volume of 0.22 ml with solutions of rhGH (14.4 mg·ml^-1, Genotropin®, Pharmacia), rhIGF-I (20 mg·ml^-1, Igef®, Pharmacia, Kabi Peptide Hormones, Stockholm, Sweden), insulin (1.57 mg/ml, Actrapid®, Novo, Copenhagen, Denmark), Dex (1.04 mg·ml^-1, Decadron, Merck Sharp & Dohme International, […], USA) or Saline (0.9%). Two (Example 1) or four (Example 2) pumps combined as described above were implanted in each rat. Implantation of the pumps was performed under strictly aseptic conditions. Total feed intake was registered throughout the full 8 day experimental period. Urine and faeces were collected daily, pooled and kept at -20° C. until analysed. Excreta was collected by housing the animals in individual metabolism cages that were specially designed for the separation of urine and faeces. In order to inhibit urease-activity in the urine, 1 ml of 5% sulphuric acid was pipetted every morning in the collection vessels. The 24 hour collections of urine were pooled individually for each treatment period and immediately frozen after the collection. Similarly, the samples of faeces were also pooled individually for each treatment period and kept frozen (-20° C.) until analysis. Urea in serum was determined spectrophotometrically by using the Urea UV Uni-Kit II (Roche) with an autoanalyzer (Cobas Mira, Roche Co, Basel, Switzerland). Urea values were expressed in mmol/l. The total nitrogen content in urine was determined with the aid of the Antek Pyro-Chemilumicence Nitrogen System. The apparatus used comprised the […] nitrogen analyser with Liquid Auto Sampler 736-2 and a pyrolysis tube with a ceramic […] Instruments Inc., Houston, Tex., U.S.A.). The frozen urinary samples were thawed and diluted 1:100 with 0.1 M HCl and then analysed. The urinary nitrogen values were then calculated as mg nitrogen excreted. Total nitrogen in faeces was determined by an established Kjeldahl method (Kjeltec System, Tecator AB, Halsingborg, Sweden). The frozen faecal samples were thawed and dried in an oven at 60° C. overnight. The weight of the dried sample was noted and the sample then ground. 0.20 g of the milled faecal sample was mixed in a Kjeldahl digestion tube with 10.0 ml of concentrated sulphuric acid. 2.0 ml of a 30% solution of H2 O2 (30% Perhydrol, Merck, Darmstadt, Germany) was added and mixed carefully. One catalyst tablet (Kjeltabs C A, Thompson & Capper, Runcom, Cheshire, UK) was added to each sample. The mixture was digested at 380° C. for at least one hour or until complete bleaching of the sample was achieved. […] The faecal nitrogen values were calculated as mg nitrogen excreted. Data were subjected to a one-way analysis of variance in which the effect of treatment was considered the prime source of variation. Calculations were executed by the GLM procedure of the SAS program (SAS 1985). […]

The test system of assay [2] is Male Sprague-Dawley rats. The experiment in a line: Example 2: dexamethasone-treated rats infused with insulin, rhGH, rhIGF-I and combinations; feed intake, nitrogen digestion and retention, serum urea. It counts as in vivo, rat. The settings on record: for Feed intake / feed consumption (in words) / Nitrogen balance / nitrogen wasting induced by dexamethasone (in words) / Relative nitrogen retention (retained N/digested N x 100): 8 days infusion; for Nitrogen balance / nitrogen wasting induced by dexamethasone (in words): Dex 26 ug/day with or without peptides; for Relative nitrogen retention (retained N/digested N x 100): Dex 26 ug/day with peptides: insulin 39, rhGH 360, rhIGF-I 500 ug/day, mean, pooled SE. The protocol: On day zero the rats were anaesthetized intraperitoneally with 0.4 ml per 100 g body weight of a mixture of Rompun (20 mg·ml^-1), Ketalar (50 mg·ml^-1) and Saline (0.9%) in 1:2:3 volume proportions. The hair on the back of the rats was shaved off and the exposed skin carefully washed with 0.05% chlorhexidine (Pharmacia, Stockholm, Sweden) and 0.4% jodopax (Molnlycke, Goteborg, Sweden), both being diluted in 70% alcohol.
Two mutually parallel incisions, each of 15 mm in length, were then made along the dorsal midline. The incisions penetrated the epidermis, dermis and subcutaneous muscle but left the deep fascia intact. Two subcutaneous pockets were made on both sides of the incisions by separating the subcutaneous muscle from the deep fascia. One (Exp. I) or two (Exp. 2) mini-pumps were implanted in each pocket. The wounds were closed with sutures 4-0 Johnson & Johnson).
Osmotic mini-pumps (Alzet 2001, Alza Corporation, Palo Alto, USA) releasing 1 μl·h^-1 for 8 days were used for continuous delivery of hormones and Dex to the animals. The pumps were filled to a volume of 0.22 ml with solutions of rhGH (14.4 mg·ml^-1, Genotropin®, Pharmacia), rhIGF-I (20 mg·ml^-1, Igef®, Pharmacia, Kabi Peptide Hormones, Stockholm, Sweden), insulin (1.57 mg/ml, Actrapid®, Novo, Copenhagen, Denmark), Dex (1.04 mg·ml^-1, Decadron, Merck Sharp & Dohme International, Rathway, USA) or Saline (0.9%). Two (Example 1) or four (Example 2) pumps combined as described above were implanted in each rat. Implantation of the pumps was performed under strictly aseptic conditions.
Total feed intake was registered throughout the full 8 day experimental period. Urine and faeces were collected daily, pooled and kept at -20° C. until analysed. Excreta was collected by housing the animals in individual metabolism cages that were specially designed for the separation of urine and faeces. In order to inhibit urease-activity in the urine, 1 ml of 5% sulphuric acid was pipetted every morning in the collection vessels. The 24 hour collections of urine were pooled individually for each treatment period and immediately frozen after the collection. Similarly, the samples of faeces were also pooled individually for each treatment period and kept frozen (-20° C.) until analysis.
Blood samples were taken on day zero and on the last day of the experiment. During anaesthesia, blood was withdrawn quickly from the orbital plexus by using a glass capillary. On each sampling occasion 0.75 ml blood was taken 5 from each animal. One third (0.25 ml) of the blood sample was collected in a microtainer tube containing EDTA (Beckton and Dickinson) for analysis of glucose. Serum was prepared from the remaining blood sample (0.5 ml) in accordance with standard methods and analysed for urea.
Urea in serum was determined spectrophotometrically by using the Urea UV Uni-Kit II (Roche) with an autoanalyzer (Cobas Mira, Roche Co, Basel, Switzerland). Urea values were expressed in mmol/l. The total nitrogen content in urine was determined with the aid of the Antek Pyro-Chemilumicence Nitrogen System. The apparatus used comprised the Antek 7000N nitrogen analyser with Liquid Auto Sampler 736-2 and a pyrolysis tube with a ceramic liner (Antek Instruments Inc., Houston, Tex., U.S.A.). The frozen urinary samples were thawed and diluted 1:100 with 0.1 M HCl and then analysed. The urinary nitrogen values were then calculated as mg nitrogen excreted.
Total nitrogen in faeces was determined by an established Kjeldahl method (Kjeltec System, Tecator AB, Halsingborg, Sweden). The frozen faecal samples were thawed and dried in an oven at 60° C. overnight. The weight of the dried sample was noted and the sample then ground. 0.20 g of the milled faecal sample was mixed in a Kjeldahl digestion tube with 10.0 ml of concentrated sulphuric acid. 2.0 ml of a 30% solution of H2 O2 (30% Perhydrol, Merck, Darmstadt, Germany) was added and mixed carefully.

The mark [3] stands for this setting: 8 days s.c. mini-pump infusion, at every Dex dose (26, 13 or 6.5 per day), rhGH 360, rhIGF-I 500 per day, vs saline.

With `C[C@@H]1C[C@H]2[C@@H]3CCC4=CC(=O)C=C[C@]4(C)[C@@]3(F)[C@@H](O)C[C@]2(C)[C@@]1(O)C(=O)CO` [Dex, dexamethasone, reference compound], the Body weight gain entry with Male Sprague-Dawley rats [1] (setting [3]) was “general decrease with increased Dex dose”. Besides, in the assay with Male Sprague-Dawley rats [2], the “Feed intake / feed consumption (in words)” value was “generally decreased feed intake”, the “Nitrogen balance / nitrogen wasting induced by dexamethasone (in words)” value was “decrease the nitrogen balance dramatically” and the “Relative nitrogen retention (retained N/digested N x 100)” value (from here on “Relative nitrogen retention”) is listed as 7.2%. Further, the “Reduction of feed intake” value in the assay on Male Sprague-Dawley rats [2] (Dex 26 per day, 8 days) is “approximately 20%”.

With “rhIGF-I: recombinant human insulin-like growth factor I (Igef, Pharmacia)”, in the assay on Male Sprague-Dawley rats [1], the “Retention of nitrogen (nitrogen balance)” value was “significantly (p<0.05) higher; also recorded: followed the same pattern”. Moreover, in the assay on Male Sprague-Dawley rats [1] (setting [3]), the Body weight gain result was “significantly (p<0.05) higher weight gain in comparison with saline; also recorded: significantly (p<0.05) increased”. In addition, in the assay with Male Sprague-Dawley rats [2], the “Feed intake / feed consumption (in words)” value is “slightly stimulated feed consumption”, the “Nitrogen balance / nitrogen wasting induced by dexamethasone (in words)” value is on record as “decreased significantly the wasting of nitrogen induced by dexamethasone” and the “Relative nitrogen retention” value is on record as 23.0%.

Regarding insulin: insulin (Actrapid, Novo), in the assay with Male Sprague-Dawley rats [2], the “Nitrogen balance / nitrogen wasting induced by dexamethasone (in words)” value was “without effect” and the “Relative nitrogen retention” value came out at 11.9%.

In the case of “rhGH: recombinant human growth hormone (Genotropin, Pharmacia)”, the “Retention of nitrogen (nitrogen balance)” value in the assay with Male Sprague-Dawley rats [1] is “followed the same pattern”. For the same molecule, the Body weight gain result was “negative values for body weight gain” in the assay on Male Sprague-Dawley rats [1] (8 days infusion, at the medium and high Dex infusion dose); “the opposite effect” in the assay on Male Sprague-Dawley rats [1] (setting [3]). The “Nitrogen balance / nitrogen wasting induced by dexamethasone (in words)” value with Male Sprague-Dawley rats [2] was “not found to counteract the nitrogen wasting induced by dexamethasone”; in the assay with Male Sprague-Dawley rats [2] (listed as GH), “without effect”. For the same molecule, the “Relative nitrogen retention” value in the assay with Male Sprague-Dawley rats [2] was 3.8%.
